From patent US20140081017A1, “Histone Deacetylase Inhibitors for Enhancing Activity of Antifungal Agents” (METHYLGENE INC., priority 2012, published 2014)
In brackets after ≈: the same amount, converted by molar mass. Read-outs that look alike come from different tables or passages of the source.

Experiments:
[1] = tested on: C. glabrata; experiment: Checkerboard FIC assay in combination with fluconazole (MIC alone and in combination, FICI); format: cell-based, Candida glabrata; settings: for FICI of combination resulting in fluconazole MIC of: 2 ug/mL / FICI of combination resulting in fluconazole MIC of: 4 ug/mL / FICI of combination resulting in fluconazole MIC of: 8 ug/mL: FICI calculated using a fluconazole MIC of 16 μg/mL; for FICI of combination resulting in fluconazole MIC of: 2 ug/mL (value in parenthesis) / FICI of combination resulting in fluconazole MIC of: 4 ug/mL (value in parenthesis) / FICI of combination resulting in fluconazole MIC of: 8 ug/mL (value in parenthesis): FICI using a fluconazole MIC of 128 μg/mL; for MIC: Nakaseomyces glabratus; for Multiple of compound MIC to synergize fluconazole MIC to 2 ug/mL / Multiple of compound MIC to synergize fluconazole MIC to 4 ug/mL / Multiple of compound MIC to synergize fluconazole MIC to 8 ug/mL: concentration in combination as multiple of the compound's MIC alone; for Multiple of compound MIC to synergize fluconazole MIC to 2 ug/mL: fluconazole MIC 2 ug/mL; for Multiple of compound MIC to synergize fluconazole MIC to 4 ug/mL: fluconazole MIC 4 ug/mL; for Multiple of compound MIC to synergize fluconazole MIC to 8 ug/mL: fluconazole MIC 8 ug/mL; for Concentration of Methylgene compound to synergize fluconazole MIC to 2 ug/mL / Concentration of Methylgene compound to synergize fluconazole MIC to 4 ug/mL / Concentration of Methylgene compound to synergize fluconazole MIC to 8 ug/mL: in combination with fluconazole; for Concentration of Methylgene compound to synergize fluconazole MIC to 2 ug/mL: fluconazole MIC lowered to 2 ug/mL; for Concentration of Methylgene compound to synergize fluconazole MIC to 4 ug/mL: fluconazole MIC lowered to 4 ug/mL; for Concentration of Methylgene compound to synergize fluconazole MIC to 8 ug/mL: fluconazole MIC lowered to 8 ug/mL
Procedure, shortened: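 A fluconazole synergy checkerboard was run against C. glabrata in MOPS-buffered RPMI (pH 7.0) for about 48 h at 35 °C. Each agent was diluted 2-fold, with one row and one column holding each agent alone for MIC determination. FICI was calculated from these MICs, using a 0.5 McFarland inoculum diluted 1:100 per CLSI.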

[2] = tested on: Candida parapsilosis; experiment: Minimal Inhibitory Concentration (MIC) assay, broth microdilution per CLSI; format: cell-based; settings: Lodderomyces parapsilosis, read-out: Minimum Inhibitory Concentrations against Yeast Isolates, Candida parapsilosis;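 note: two read times 24 hr and 48 hr of incubation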
Procedure, shortened: (§1)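 Read-out is visual: MIC is the lowest compound concentration preventing visible growth after approximately 24-48 hr at 35° C. Testing used CLSI microdilution in MOPS-buffered RPMI (pH 7.0) with serial 1:1 compound dilutions made in DMSO.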

[3] = tested on: Candida glabrata; experiment: as above; format: cell-based; settings: Nakaseomyces glabratus, read-out: Minimum Inhibitory Concentrations against Yeast Isolates, Candida glabrata;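 note: two read times 24 hr and 48 hr of incubation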
Procedure, shortened: as §1

[4] = tested on: Candida albicans; experiment: as above; format: cell-based; settings: Candida albicans, read-out: Minimum Inhibitory Concentrations against Yeast Isolates, Candida albicans;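 note: two read times 24 hr and 48 hr of incubation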
Procedure, shortened: as §1

[5] = MIC of the example compound alone against C. glabrata in the checkerboard assay, approximately 48 hr, read-out: Methylgene MIC
[6] = test compound alone, C. glabrata, approx. 48 hr at 35° C., read-out: Compound MIC
[7] = 24 hr reading (first value of cell 24 hr/48 hr)
[8] = 48 hr reading (second value of cell 24 hr/48 hr)

SMILES | FICI of combination resulting in fluconazole MIC of: 2 ug/mL ([1]; C. glabrata) | FICI of combination resulting in fluconazole MIC of: 4 ug/mL ([1]; C. glabrata) | FICI of combination resulting in fluconazole MIC of: 8 ug/mL ([1]; C. glabrata) | FICI of combination resulting in fluconazole MIC of: 2 ug/mL (value in parenthesis) ([1]; C. glabrata) | FICI of combination resulting in fluconazole MIC of: 4 ug/mL (value in parenthesis) ([1]; C. glabrata) | FICI of combination resulting in fluconazole MIC of: 8 ug/mL (value in parenthesis) ([1]; C. glabrata) | MIC [1, 5] [µg/mL] | MIC [1, 6] [µg/mL] | Multiple of compound MIC to synergize fluconazole MIC to 2 ug/mL [1] | Multiple of compound MIC to synergize fluconazole MIC to 4 ug/mL [1] | Multiple of compound MIC to synergize fluconazole MIC to 8 ug/mL [1] | Concentration of Methylgene compound to synergize fluconazole MIC to 2 ug/mL ([1]; C. glabrata) [µg/mL] | Concentration of Methylgene compound to synergize fluconazole MIC to 4 ug/mL ([1]; C. glabrata) [µg/mL] | Concentration of Methylgene compound to synergize fluconazole MIC to 8 ug/mL ([1]; C. glabrata) [µg/mL] | MIC [2, 7] [µg/mL] | MIC [2, 8] [µg/mL] | MIC [3, 7] [µg/mL] | MIC [3, 8] [µg/mL] | MIC [4, 7] [µg/mL] | MIC [4, 8] [µg/mL]
CN(C)CCSCC(=O)Nc1ccc(CCCCc2ccc(CC(=O)NO)cc2)cc1 [Example 38, 2-(2-(dimethylamino)ethylthio)-N-(4-(4-(4-(2-(hydroxyamino)-2-oxoethyl)phenyl)butyl)phenyl)acetamide] | 0.563 | 0.375 | 0.375 | 0.516 | 0.281 | 0.188 | 16 | 16 | (½x) | (¼x) | (⅛x) | 8 | 4 | 2 | > 64 | > 64 | 16 (≈ 36.1 µM) | 16 (≈ 36.1 µM) | > 64 | > 64
CC(=O)Nc1ccc(CCCCc2ccc(CC(=O)NO)cc2)cc1 [Example 39, 2-(4-(4-(4-acetamidophenyl)butyl)phenyl)-N-hydroxyacetamide] | 0.375 | 0.375 | 0.563 | 0.266 | 0.156 | 0.125 | 16 | 16 | (¼x) | (⅛x) | ( 1/16x) | 4 | 2 | 1 | > 8 | > 8 | > 8 | > 8 | > 8 | > 8
COCCOCCOCC(=O)Nc1cccc(CCCCc2ccc(CC(=O)NO)cc2)c1 [Example 40, N-hydroxy-2-(4-(4-(3-(2-(2-(2-methoxyethoxy)ethoxy)acetamido)phenyl)butyl)phenyl)acetamide] | 0.313 | 0.250 | 0.375 | 0.266 | 0.156 | 0.188 | 16 | 16 | (¼x) | (⅛x) | (⅛x) | 4 | 2 | 2 | > 64 | > 64 | 2 (≈ 4.36 µM) | 32 (≈ 69.8 µM) | > 64 | > 64
